Key:
Experiment in all cases: relative viability (nuclei count vs DMSO), 5 days (fraction); higher = more cells survive
[1] = compound: Cn1cc(-c2cnn3c(N)c(Br)c([C@@H]4CCCNC4)nc23)cn1 + Nc1ncn([C@H]2C[C@H](O)[C@@H](CO)O2)c(=O)n1 [Decitabine] (partner 2 µM)
In short: (§1)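 Each reported value is a median over duplicate plates. It expresses relative viability: treated-well nuclei count divided by vehicle-well nuclei count. Lung cancer cell lines in 1536-well plates were dosed by pin tool a day after seeding, alone with one drug or with a fixed anchor-drug dose plus five library-drug doses (not always all listed) in √10 steps, and nuclei were counted after 5 days.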

[2] = compound: Cn1cc(-c2cnn3c(N)c(Br)c([C@@H]4CCCNC4)nc23)cn1 + O=C(c1cc(Cc2n[nH]c(=O)c3ccccc23)ccc1F)N1CCN(C(=O)C2CC2)CC1 [Olaparib] (partner 8 µM)
In short: as §1

[3] = compound: Cn1cc(-c2cnn3c(N)c(Br)c([C@@H]4CCCNC4)nc23)cn1 + CS(=O)(=O)CCNCc1ccc(-c2ccc3ncnc(Nc4ccc(OCc5cccc(F)c5)c(Cl)c4)c3c2)o1 [Lapatinib] (partner 2 µM)
In short: as §1

[4] = compound: Cn1cc(-c2cnn3c(N)c(Br)c([C@@H]4CCCNC4)nc23)cn1 + NC(=O)Nc1cc(-c2cccc(F)c2)sc1C(=O)N[C@H]1CCCNC1 [AZD7762] (partner 0.2 µM)
In short: as §1

Cell Line: NCI-H1975
- relative viability ([1]; first compound 0.05 µM): 0.433
- relative viability ([1]; first compound 0.1581 µM): 0.458
- relative viability ([1]; first compound 0.5 µM): 0.767
- relative viability ([1]; first compound 1.581 µM): 0.388
- relative viability ([1]; first compound 5 µM): 0.396
- relative viability ([2]; first compound 0.05 µM): 0.841
- relative viability ([2]; first compound 0.1581 µM): 0.792
- relative viability ([2]; first compound 0.5 µM): 0.7
- relative viability ([2]; first compound 1.581 µM): 0.581
- relative viability ([2]; first compound 5 µM): 0.708
- relative viability ([3]; first compound 0.05 µM): 0.888
- relative viability ([3]; first compound 0.1581 µM): 0.862
- relative viability ([3]; first compound 0.5 µM): 0.835
- relative viability ([3]; first compound 1.581 µM): 0.635
- relative viability ([3]; first compound 5 µM): 0.798
- relative viability ([4]; first compound 0.05 µM): 0.752
- relative viability ([4]; first compound 0.1581 µM): 0.718
- relative viability ([4]; first compound 0.5 µM): 0.72
- relative viability ([4]; first compound 1.581 µM): 0.664
- relative viability ([4]; first compound 5 µM): 0.571

Cell Line: NCI-H1993
- relative viability ([1]; first compound 0.05 µM): 0.602
- relative viability ([1]; first compound 0.1581 µM): 0.49
- relative viability ([1]; first compound 0.5 µM): 0.621
- relative viability ([1]; first compound 1.581 µM): 0.55
- relative viability ([1]; first compound 5 µM): 0.524
- relative viability ([2]; first compound 0.05 µM): 0.959
- relative viability ([2]; first compound 0.1581 µM): 1.05
- relative viability ([2]; first compound 0.5 µM): 1.01
- relative viability ([2]; first compound 1.581 µM): 0.969
- relative viability ([2]; first compound 5 µM): 1.1
- relative viability ([3]; first compound 0.05 µM): 0.634
- relative viability ([3]; first compound 0.1581 µM): 0.858
- relative viability ([3]; first compound 1.581 µM): 0.739
- relative viability ([3]; first compound 5 µM): 0.759
- relative viability ([4]; first compound 0.05 µM): 0.642
- relative viability ([4]; first compound 0.1581 µM): 0.84
- relative viability ([4]; first compound 0.5 µM): 0.616
- relative viability ([4]; first compound 1.581 µM): 0.733
- relative viability ([4]; first compound 5 µM): 0.664

Cell Line: NCI-H2085
- relative viability ([1]; first compound 0.05 µM): 0.532
- relative viability ([1]; first compound 0.1581 µM): 0.594
- relative viability ([1]; first compound 0.5 µM): 0.551
- relative viability ([1]; first compound 1.581 µM): 0.545
- relative viability ([1]; first compound 5 µM): 0.624
- relative viability ([2]; first compound 0.05 µM): 0.813
- relative viability ([2]; first compound 0.1581 µM): 0.849
- relative viability ([2]; first compound 0.5 µM): 0.776
- relative viability ([2]; first compound 1.581 µM): 0.762
- relative viability ([2]; first compound 5 µM): 0.752
- relative viability ([3]; first compound 0.05 µM): 0.801
- relative viability ([3]; first compound 0.1581 µM): 0.847
- relative viability ([3]; first compound 0.5 µM): 0.893
- relative viability ([3]; first compound 1.581 µM): 0.738
- relative viability ([3]; first compound 5 µM): 0.621
- relative viability ([4]; first compound 0.05 µM): 0.964
- relative viability ([4]; first compound 0.1581 µM): 1.12
- relative viability ([4]; first compound 0.5 µM): 1.01
- relative viability ([4]; first compound 1.581 µM): 0.765
- relative viability ([4]; first compound 5 µM): 0.719

Cell Line: NCI-H2087
- relative viability ([1]; first compound 0.05 µM): 0.258
- relative viability ([1]; first compound 0.1581 µM): 0.25
- relative viability ([1]; first compound 0.5 µM): 0.231
- relative viability ([1]; first compound 1.581 µM): 0.331
- relative viability ([1]; first compound 5 µM): 0.347
- relative viability ([2]; first compound 0.05 µM): 0.766
- relative viability ([2]; first compound 0.1581 µM): 0.735
- relative viability ([2]; first compound 0.5 µM): 0.623
- relative viability ([2]; first compound 1.581 µM): 0.624
- relative viability ([2]; first compound 5 µM): 0.676
- relative viability ([3]; first compound 0.05 µM): 1.29
- relative viability ([3]; first compound 0.1581 µM): 1.17
- relative viability ([3]; first compound 0.5 µM): 0.996
- relative viability ([3]; first compound 1.581 µM): 1.21
- relative viability ([3]; first compound 5 µM): 0.985
- relative viability ([4]; first compound 0.05 µM): 1.32
- relative viability ([4]; first compound 0.1581 µM): 1.38
- relative viability ([4]; first compound 0.5 µM): 1.41
- relative viability ([4]; first compound 1.581 µM): 1.22
- relative viability ([4]; first compound 5 µM): 1.42

Cell Line: NCI-H2126
- relative viability ([1]; first compound 0.05 µM): 0.544
- relative viability ([1]; first compound 0.1581 µM): 0.581
- relative viability ([1]; first compound 0.5 µM): 0.563
- relative viability ([1]; first compound 1.581 µM): 0.526
- relative viability ([1]; first compound 5 µM): 0.632
- relative viability ([2]; first compound 0.05 µM): 0.965
- relative viability ([2]; first compound 0.1581 µM): 0.923
- relative viability ([2]; first compound 0.5 µM): 0.887
- relative viability ([2]; first compound 1.581 µM): 0.792
- relative viability ([2]; first compound 5 µM): 0.923
- relative viability ([3]; first compound 0.05 µM): 0.743
- relative viability ([3]; first compound 0.1581 µM): 0.847
- relative viability ([3]; first compound 0.5 µM): 0.753
- relative viability ([3]; first compound 1.581 µM): 0.642
- relative viability ([3]; first compound 5 µM): 0.817
- relative viability ([4]; first compound 0.05 µM): 1.05
- relative viability ([4]; first compound 0.1581 µM): 1.03
- relative viability ([4]; first compound 0.5 µM): 0.997
- relative viability ([4]; first compound 1.581 µM): 0.993
- relative viability ([4]; first compound 5 µM): 0.986

Cell Line: NCI-H2170
- relative viability ([1]; first compound 0.05 µM): 0.503
- relative viability ([1]; first compound 0.1581 µM): 0.491
- relative viability ([1]; first compound 0.5 µM): 0.459
- relative viability ([1]; first compound 1.581 µM): 0.473
- relative viability ([1]; first compound 5 µM): 0.516
- relative viability ([2]; first compound 0.05 µM): 0.605
- relative viability ([2]; first compound 0.1581 µM): 0.588
- relative viability ([2]; first compound 0.5 µM): 0.649
- relative viability ([2]; first compound 1.581 µM): 0.523
- relative viability ([2]; first compound 5 µM): 0.555
- relative viability ([3]; first compound 0.05 µM): 0.26
- relative viability ([3]; first compound 0.1581 µM): 0.252
- relative viability ([3]; first compound 0.5 µM): 0.289
- relative viability ([3]; first compound 1.581 µM): 0.282
- relative viability ([3]; first compound 5 µM): 0.286
- relative viability ([4]; first compound 0.05 µM): 0.923
- relative viability ([4]; first compound 0.1581 µM): 0.919
- relative viability ([4]; first compound 0.5 µM): 0.753
- relative viability ([4]; first compound 1.581 µM): 0.822
- relative viability ([4]; first compound 5 µM): 0.973

Cell Line: NCI-H2347
- relative viability ([1]; first compound 0.05 µM): 0.611
- relative viability ([1]; first compound 0.1581 µM): 0.649
- relative viability ([1]; first compound 0.5 µM): 0.637
- relative viability ([1]; first compound 1.581 µM): 0.662
- relative viability ([1]; first compound 5 µM): 0.621
- relative viability ([2]; first compound 0.05 µM): 0.626
- relative viability ([2]; first compound 0.1581 µM): 0.695
- relative viability ([2]; first compound 0.5 µM): 0.53
- relative viability ([2]; first compound 1.581 µM): 0.629
- relative viability ([2]; first compound 5 µM): 0.611
- relative viability ([3]; first compound 0.05 µM): 0.919
- relative viability ([3]; first compound 0.1581 µM): 1.03
- relative viability ([3]; first compound 0.5 µM): 1.05
- relative viability ([3]; first compound 1.581 µM): 0.902
- relative viability ([3]; first compound 5 µM): 0.645
- relative viability ([4]; first compound 0.05 µM): 0.77
- relative viability ([4]; first compound 0.1581 µM): 0.635
- relative viability ([4]; first compound 0.5 µM): 0.76
- relative viability ([4]; first compound 1.581 µM): 0.65
- relative viability ([4]; first compound 5 µM): 0.532

Cell Line: NCI-H2405
- relative viability ([1]; first compound 0.05 µM): 0.747
- relative viability ([1]; first compound 0.1581 µM): 0.819
- relative viability ([1]; first compound 0.5 µM): 0.776
- relative viability ([1]; first compound 1.581 µM): 0.71
- relative viability ([1]; first compound 5 µM): 0.713
- relative viability ([2]; first compound 0.05 µM): 0.875
- relative viability ([2]; first compound 0.1581 µM): 0.954
- relative viability ([2]; first compound 0.5 µM): 0.901
- relative viability ([2]; first compound 1.581 µM): 0.857
- relative viability ([2]; first compound 5 µM): 0.659
- relative viability ([3]; first compound 0.05 µM): 1.06
- relative viability ([3]; first compound 0.1581 µM): 1.17
- relative viability ([3]; first compound 0.5 µM): 1.01
- relative viability ([3]; first compound 1.581 µM): 0.993
- relative viability ([3]; first compound 5 µM): 0.85
- relative viability ([4]; first compound 0.05 µM): 0.682
- relative viability ([4]; first compound 0.1581 µM): 0.75
- relative viability ([4]; first compound 0.5 µM): 0.659
- relative viability ([4]; first compound 1.581 µM): 0.476
- relative viability ([4]; first compound 5 µM): 0.501
